According to patent publication US20120207722A1, “Use Of Adipose Tissue Cells For Initiating The Formation Of A Functional Vascular Network” (CENTRE NATIONAL DE LA RECHERCHE SCIENTIFIQUE, priority 2003, published 2012):

Tested on: hind limb rendered ischemic
Test: Hind limb ischemia model, SVF-CULT cells with modified redox state (antimycin and/or PDTC)
Format: in vivo, mouse
Conditions: daily i.p. injection (50 μl at 40 nM) after the injection of the SVF-CULT cells
Protocol: The angiogenic potential of the SVF-CULT cells treated, in vitro, with antimycin (40 nM) and/or pyrrolidine dithiocarbamate (PDTC; 0.5 mM) two days before the injection, was analyzed in the model of the mouse with a hind limb rendered ischemic, as described in Example 1. Furthermore, after the injection of the SVF-CULT cells treated with antimycin alone, by adding antimycin to the culture medium, or not treated, the mice were or were not given a daily i.p. injection of antimycin (50 μl at 40 nM). The mice treated similarly with PDTC alone or in combination with antimycin receive no treatment after the injection of cells.
The angiogenic potential of the nontreated SVF-CULT cells, in mice not treated after the injection of the cells, was analyzed in parallel, by way of comparison. The control group was given an injection of ethanol, under the same conditions.
The neovascularization process was analyzed by microangiography and, optionally, by laser Doppler, 8 days after femoral occlusion. The statistical analysis was carried out by means of an ANOVA-type variance test for comparing each parameter (n=5 for each group). A Bonferroni t test subsequently made it possible to identify the groups causing these differences. A value of P<0.05 is considered to be significant.

antimycin
effect on revascularization when administered directly to the animal: no effect
